Consider 15 compounds from ChEMBL document CHEMBL4118154, “Discovery of evocalcet, a next-generation calcium-sensing receptor agonist for the treatment of hyperparathyroidism” (Bioorg Med Chem Lett, 2018).

Structures can show the parent of a compound that is named as a salt. A value given as a limit tells only on which side of the number the result lay.

Data set [1] addresses T1, CYP2D6 (Homo sapiens, UniProt P10635). As to the kind of experiment: Inhibition of CYP2D6 (unknown origin) at 1 uM relative to control. It is filed as ADME.
The target of data set [2] is T2, Extracellular calcium-sensing receptor (Homo sapiens, UniProt P41180).
T2 sequence (P41180 whole entry): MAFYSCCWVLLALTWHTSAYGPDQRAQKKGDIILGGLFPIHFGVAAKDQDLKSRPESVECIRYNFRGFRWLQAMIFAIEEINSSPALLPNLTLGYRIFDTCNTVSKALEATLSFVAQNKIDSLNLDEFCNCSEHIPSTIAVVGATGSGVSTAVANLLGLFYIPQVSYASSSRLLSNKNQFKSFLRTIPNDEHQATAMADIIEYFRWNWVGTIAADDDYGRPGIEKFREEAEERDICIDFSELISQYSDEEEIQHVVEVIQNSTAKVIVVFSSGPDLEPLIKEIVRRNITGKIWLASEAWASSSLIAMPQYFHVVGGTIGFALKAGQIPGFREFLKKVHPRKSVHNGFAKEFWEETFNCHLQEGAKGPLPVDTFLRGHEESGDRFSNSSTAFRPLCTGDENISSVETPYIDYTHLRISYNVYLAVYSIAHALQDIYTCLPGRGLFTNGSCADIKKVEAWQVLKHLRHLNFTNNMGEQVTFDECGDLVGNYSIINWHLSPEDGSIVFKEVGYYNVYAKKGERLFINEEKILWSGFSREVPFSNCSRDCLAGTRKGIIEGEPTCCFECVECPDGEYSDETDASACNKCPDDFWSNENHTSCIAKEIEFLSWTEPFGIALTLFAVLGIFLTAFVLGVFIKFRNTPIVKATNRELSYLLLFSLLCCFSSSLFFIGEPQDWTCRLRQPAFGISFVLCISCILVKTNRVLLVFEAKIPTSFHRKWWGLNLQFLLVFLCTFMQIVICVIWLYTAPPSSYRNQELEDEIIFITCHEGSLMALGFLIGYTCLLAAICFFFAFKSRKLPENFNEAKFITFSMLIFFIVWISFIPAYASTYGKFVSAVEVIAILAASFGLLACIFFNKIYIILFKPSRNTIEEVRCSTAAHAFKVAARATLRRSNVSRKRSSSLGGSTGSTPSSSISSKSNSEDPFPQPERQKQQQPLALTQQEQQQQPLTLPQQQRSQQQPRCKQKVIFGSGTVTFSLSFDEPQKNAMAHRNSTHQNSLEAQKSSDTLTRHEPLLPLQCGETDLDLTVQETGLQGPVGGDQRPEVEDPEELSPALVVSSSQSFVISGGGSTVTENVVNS
As to the kind of experiment: Agonist activity at human CaSR expressed in CHO cells assessed as increase in intracellular calcium mobilization after 1 hr by Fura-2 dye-based fluorescence assay. The class given is functional, cell-based. On the technique in general: A change in cytosolic calcium serves as a functional read-out for many receptors and channels.

Data set [3] deals with T1, CYP2D6. As to the kind of experiment: Inhibition of CYP2D6 (unknown origin) at 0.1 uM relative to control. It is filed as ADME.
Data set [4] in a line: Intrinsic clearance in rat liver microsomes assessed per protein. The class given is ADME, microsome. The note with it: read-out: CLH.
The target of data set [5] is T3, Extracellular calcium-sensing receptor (Rattus norvegicus, UniProt P48442).
T3 sequence (P48442 whole entry): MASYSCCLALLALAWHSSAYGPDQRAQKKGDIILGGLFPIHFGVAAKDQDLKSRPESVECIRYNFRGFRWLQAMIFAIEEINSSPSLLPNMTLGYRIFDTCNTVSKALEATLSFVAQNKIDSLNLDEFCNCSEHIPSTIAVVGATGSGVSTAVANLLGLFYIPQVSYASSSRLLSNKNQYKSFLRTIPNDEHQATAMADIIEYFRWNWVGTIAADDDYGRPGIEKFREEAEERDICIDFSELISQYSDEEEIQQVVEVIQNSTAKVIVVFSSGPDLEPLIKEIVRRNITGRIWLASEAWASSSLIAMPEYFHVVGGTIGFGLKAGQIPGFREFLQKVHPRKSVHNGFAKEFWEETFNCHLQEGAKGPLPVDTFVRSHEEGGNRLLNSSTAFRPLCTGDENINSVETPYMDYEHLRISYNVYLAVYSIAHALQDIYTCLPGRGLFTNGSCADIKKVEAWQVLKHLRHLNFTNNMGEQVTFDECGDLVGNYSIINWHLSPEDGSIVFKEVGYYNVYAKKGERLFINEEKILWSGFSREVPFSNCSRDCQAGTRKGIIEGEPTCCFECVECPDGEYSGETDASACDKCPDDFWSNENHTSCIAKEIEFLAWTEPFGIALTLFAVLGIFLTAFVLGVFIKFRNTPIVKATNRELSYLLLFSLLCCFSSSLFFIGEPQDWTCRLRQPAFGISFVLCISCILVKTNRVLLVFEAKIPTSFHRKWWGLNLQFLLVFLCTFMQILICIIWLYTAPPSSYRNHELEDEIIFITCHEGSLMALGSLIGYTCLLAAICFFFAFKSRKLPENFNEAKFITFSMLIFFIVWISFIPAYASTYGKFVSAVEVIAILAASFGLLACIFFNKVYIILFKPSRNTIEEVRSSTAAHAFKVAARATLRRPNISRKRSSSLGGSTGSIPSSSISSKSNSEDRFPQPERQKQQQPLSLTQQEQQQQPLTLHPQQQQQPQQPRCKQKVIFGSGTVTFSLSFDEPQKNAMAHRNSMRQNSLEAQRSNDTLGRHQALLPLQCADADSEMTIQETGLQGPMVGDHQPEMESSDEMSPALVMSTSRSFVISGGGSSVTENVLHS
As to the kind of experiment: Agonist activity at CaSR in rat parathyroid cells assessed as inhibition of PTH (1 to 84 residues) production in presence of Cacl2 by ELISA. It is filed as functional, cell-based.

Data set [6] in a line: Intrinsic clearance in human liver microsomes assessed per protein. It is filed as ADME, microsome. The note with it: read-out: CLH. In general terms: Liver microsomes are a subcellular fraction often used to study metabolism.
The target in data set [7] is T1, CYP2D6. Put plainly: Inhibition of CYP2D6 (unknown origin) at 10 uM relative to control. It is filed as ADME.
The target of a further data set is Cytochrome P450 2D6 (Homo sapiens, UniProt P10635). As to the kind of experiment: Inhibition of recombinant human CYP2D6 expressed in bacterial membranes using AMMC as substrate preincubated for 10 mins followed by NADPH addition measured after 30 mins by fluorescence assay. The class given is ADME, cell membranes.
Sequence of Cytochrome P450 2D6 (P10635 whole entry): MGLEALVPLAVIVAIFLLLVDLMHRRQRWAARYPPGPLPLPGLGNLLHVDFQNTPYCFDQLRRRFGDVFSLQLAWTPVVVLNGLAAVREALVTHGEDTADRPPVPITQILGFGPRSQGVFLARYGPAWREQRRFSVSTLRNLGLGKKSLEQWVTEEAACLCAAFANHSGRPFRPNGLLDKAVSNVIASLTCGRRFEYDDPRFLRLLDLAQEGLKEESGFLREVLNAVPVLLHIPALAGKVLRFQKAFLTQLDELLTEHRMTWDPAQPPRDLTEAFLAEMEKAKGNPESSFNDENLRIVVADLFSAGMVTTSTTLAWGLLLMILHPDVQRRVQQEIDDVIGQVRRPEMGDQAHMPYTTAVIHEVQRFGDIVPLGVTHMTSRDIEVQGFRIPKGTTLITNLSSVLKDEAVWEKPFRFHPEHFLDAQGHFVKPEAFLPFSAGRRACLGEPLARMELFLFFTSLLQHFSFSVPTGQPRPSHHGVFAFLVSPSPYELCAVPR

T1 sequence (P10635 whole entry): as above

A word on the inhibition: it is the change of the read-out against control, counted positive when it falls. What is called EC50 is the concentration at which the effect is half-maximal. For orientation: IC50 means the concentration at which inhibition is half-maximal. `C[C@@H](N[C@H]1CCN(c2cccc(C(F)(F)F)c2)C1)c1cccc2ccccc12`: the inhibition at 1 µM against CYP2D6 [1] worked out at 87.5%. Also, in data set [2], the EC50 came out at 450 nM. For the same compound, the inhibition at 0.1 µM against CYP2D6 [3] is 85.1%. For the same compound, the microsomal CLint came to 370 µL/min/mg in data set [4] and 171 µL/min/mg in data set [6]. Besides, the IC50 in data set [5] is 13.1 nM.

In turn, `C[C@@H](N[C@@H]1CCN(c2cccc(OC(F)(F)F)c2)C1)c1cccc2ccccc12` gave an inhibition at 1 µM at CYP2D6 [1] of 61.2%. Besides, the concentration giving a half-maximal response (EC50) in data set [2] was 320 nM. The inhibition at 0.1 µM at CYP2D6 [3] came out at 15.8%. Further, the microsomal CLint in data set [4] was 270 µL/min/mg; in data set [6] it was 206 µL/min/mg. The IC50 in data set [5] was 4.3 nM.

`C[C@@H](N[C@@H]1CCN(c2ccc(OC(F)(F)F)cc2)C1)c1cccc2ccccc12`: in data set [2], the EC50 stood at 230 nM. The IC50 in data set [5] came out at 116 nM.

`C[C@@H](N[C@H]1CCN(c2ccc(C(=O)O)cc2)C1)c1cccc2ccccc12` registered an inhibition at 1 µM against CYP2D6 [1] of 14.1%. For the same compound, the inhibition at 10 µM at CYP2D6 [7] stood at 14.1%. In addition, on CYP2D6 [3], the inhibition at 0.1 µM came out at 0%. The figures for the microsomal CLint in data set [4] and in data set [6] were 92 µL/min/mg and 97 µL/min/mg, respectively. Further, the IC50 in data set [5] came out at 8 nM.

On CYP2D6 [1], `C[C@@H](N[C@H]1CCCN(c2cccc(OC(F)(F)F)c2)C1)c1cccc2ccccc12` showed an inhibition at 1 µM of 86.4%. Besides, the inhibition at 10 µM at CYP2D6 [7] was 92.5%. Moreover, the EC50 in data set [2] is 600 nM. At CYP2D6 [3], 0.1 µM produced 79% inhibition. The values for the microsomal CLint in data set [4] and in data set [6] were 442 µL/min/mg and 225 µL/min/mg, respectively. The IC50 in data set [5] was found to be 31.8 nM.

The compound `C[C@@H](N[C@@H]1CCN(c2cccc(C(F)(F)F)c2)C1)c1cccc2ccccc12` displayed an inhibition at 1 µM on CYP2D6 [1] of 60%. Further, in data set [2], the half-maximal effective concentration (EC50) turned out to be 430 nM. This compound also had an inhibition at 0.1 µM against CYP2D6 [3] of 3%. The microsomal CLint stood at 302 µL/min/mg in data set [4] and 421 µL/min/mg in data set [6]. Besides, the IC50 in data set [5] turned out to be 9.7 nM.

For the compound `C[C@@H](N[C@H]1CCCN(c2ccc(C(=O)O)cc2)C1)c1cccc2ccccc12`, in data set [2], the EC50 came to 1100 nM. Moreover, the IC50 in data set [5] is > 100 nM.

`C[C@@H](N[C@H]1CCN(c2cccc(OC(F)(F)F)c2)C1)c1cccc2ccccc12`: the inhibition at 1 µM on CYP2D6 [1] stood at 88.4%. The 50% effective concentration (EC50) in data set [2] came out at 600 nM. Also, the inhibition at 0.1 µM against CYP2D6 [3] amounted to 85.9%. In addition, the microsomal CLint in data set [4] worked out at 176 µL/min/mg; in data set [6], 84 µL/min/mg. For the same compound, the half-inhibitory concentration (IC50) in data set [5] turned out to be 11.7 nM.

At CYP2D6 [1], `C[C@@H](N[C@@H]1CCCN(c2cccc(C(F)(F)F)c2)C1)c1cccc2ccccc12` showed an inhibition at 1 µM of 78.7%. On CYP2D6 [7], this compound gave an inhibition at 10 µM of 87.6%. Also, the 50% effective concentration (EC50) in data set [2] came to 380 nM. At CYP2D6 [3], 0.1 µM produced 54.8% inhibition. The microsomal CLint in data set [4] was 610 µL/min/mg; in data set [6], 662 µL/min/mg. In addition, the IC50 in data set [5] was 2.1 nM.

In turn, `C[C@@H](N[C@@H]1CCCN(c2cccc(OC(F)(F)F)c2)C1)c1cccc2ccccc12` registered an inhibition at 1 µM against CYP2D6 [1] of 82.6%. On CYP2D6 [7], this compound showed an inhibition at 10 µM of 85.2%. Besides, the EC50 in data set [2] is 190 nM. The inhibition at 0.1 µM against CYP2D6 [3] came out at 54%. Further, the microsomal CLint in data set [4] stood at 231 µL/min/mg; in data set [6], 370 µL/min/mg. Besides, the IC50 in data set [5] was 1.4 nM.

For `C[C@@H](N[C@H]1CCN(c2ccc(C(=O)NCCO)cc2)C1)c1cccc2ccccc12`, at 1 µM the inhibition on CYP2D6 [1] was 3.4%. The inhibition at 10 µM against CYP2D6 [7] is 30.7%. Besides, the EC50 in data set [2] came out at 50 nM. The same compound displayed an inhibition at 0.1 µM on CYP2D6 [3] of 4.4%. Besides, the microsomal CLint in data set [4] came to 667 µL/min/mg; in data set [6], 197 µL/min/mg. Further, the IC50 in data set [5] was 0.91 nM.

`C[C@@H](N[C@H]1CCN(c2ccc(-c3nn[nH]n3)cc2)C1)c1cccc2ccccc12` displayed an inhibition at 10 µM against CYP2D6 [7] of 75.3%. Besides, in data set [2], the EC50 worked out at 17 nM. Moreover, the microsomal CLint was determined as 42 µL/min/mg in data set [4] and 312 µL/min/mg in data set [6]. Besides, the IC50 in data set [5] stood at 0.47 nM.

Take `C[C@@H](N[C@H]1CCN(c2ccc(OC(F)(F)F)cc2)C1)c1cccc2ccccc12`: the inhibition at 1 µM on CYP2D6 [1] was 62.5%. Moreover, the inhibition at 10 µM on CYP2D6 [7] came out at 79.8%. For the same compound, the EC50 in data set [2] was 120 nM. Moreover, 0.1 µM produced 15.8% inhibition at CYP2D6 [3]. Moreover, the IC50 in data set [5] was 7.8 nM.

Turning to `C[C@@H](NCCCc1cccc(C(F)(F)F)c1)c1cccc2ccccc12` [CINACALCET HYDROCHLORIDE], in data set [2], the EC50 stood at 180 nM. The IC50 on Cytochrome P450 2D6 was < 100 nM.

Consider `C[C@@H](N[C@@H]1CCN(c2ccc(C(=O)O)cc2)C1)c1cccc2ccccc12`, for which the half-maximal effective concentration (EC50) in data set [2] was 8800 nM.
